Data on four compounds can be found in publication PMC11020070, “Discovery of Protease-Activated Receptor 4 (PAR4)-Tethered Ligand Antagonists Using Ultralarge Virtual Screening” (ACS Pharmacology & Translational Science, 2024).

The target of one data set is T1, PAR4 (Homo sapiens, UniProt Q96RI0).
T1 sequence (Q96RI0 18-385): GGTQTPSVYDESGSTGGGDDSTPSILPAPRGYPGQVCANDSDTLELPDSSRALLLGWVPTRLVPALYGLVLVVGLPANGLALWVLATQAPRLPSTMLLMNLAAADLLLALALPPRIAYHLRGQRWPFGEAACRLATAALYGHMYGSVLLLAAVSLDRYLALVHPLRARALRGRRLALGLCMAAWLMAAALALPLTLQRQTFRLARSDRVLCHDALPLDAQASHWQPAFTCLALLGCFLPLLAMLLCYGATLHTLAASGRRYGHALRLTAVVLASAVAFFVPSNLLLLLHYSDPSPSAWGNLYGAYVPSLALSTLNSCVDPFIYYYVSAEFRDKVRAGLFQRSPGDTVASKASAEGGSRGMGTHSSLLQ
Briefly: PAR4 component of α-thrombin activation (α-thrombin + vorapaxar) in human platelets. In kind it is cell-based. On the set-up: endogenous in cells; host or cells: platelets. The settings on record: for IC50: α-thrombin + vorapaxar, read-out: PAR4 IC50 (Figure 6D). The method, then:
Figure 5 (A) Off-target controls: % of vehicle control for γ-thrombin (100 nM), PAR4 component of α-thrombin (5 nM α-thrombin +1 μM vorapaxar), PAR4 agonist peptide 200 μM AYPGKF, 200 μM PAR1 agonist peptide SFLLRN, and GPVI agonist convulxin 3.16 nM.
Figure 6 (A) Distribution of IC50 values for the inhibition of human PAR4 vs mouse PAR4. Red indicates the 2 compounds highlighted in panels (B–D). (B) Structures of exemplar compounds. (C) Concentration–response curves for human vs mouse PAR4. (D) Concentration–response curves for the inhibition of pharmacologically defined α-thrombin components for PAR1 (α-thrombin + BMS-3) vs PAR4 (α-thrombin + vorapaxar).
α-thrombin activates both PAR1 and PAR4, and the individual PAR1 or PAR4 component can be isolated pharmacologically. […] With 20 substitutions between PAR1 and PAR4 within 5 Å of the predicted 31 binding site, the basis for these selectivity differences is not known (Figure S4). As we continue to probe for a selective PAR4 antagonist, mutagenesis of individual residues will be conducted.
Compounds were screened for inhibition activity against human PAR4 using 100 nM γ-thrombin or 200 μM PAR4-AP in a single-point assay (10 μM test compound). Dose–response curves were conducted for active compounds. Active compounds were also assessed at a single concentration of 10 μM against other agonists, including the PAR4 component of α-thrombin (5 nM α-thrombin +1 μM vorapaxar), the PAR1 agonist peptide (20 μM SFFLRN), and the GPVI receptor agonist convulxin (3 nM).

Data set [1] is described as follows: Microsomal stability, mouse liver microsomes. The settings on record: for CLint scaled at 1 µM: pH 7.4, mouse liver microsomes, in vitro, reaction started with NADPH; for mouse CLhep: predicted hepatic clearance from mouse liver microsomes. Type of data set: in vitro ADME. The procedure:
The metabolic stability of each compound was investigated in mouse and human hepatic microsomes using substrate depletion methodology (% parent compound remaining). Prior to use, microsomes were removed from the freezer and allowed to thaw in a 37 °C water bath before being placed on wet ice.
In separate 96-well plates for each time point, a mixture of 0.1 M potassium phosphate-buffered (pH 7.4), 3 mM MgCl2, and 2.5 mg/mL microsomes were prewarmed at 37 °C for 5 min. Following the preincubation, a 1 μM test compound and 1 mM NADPH (for 3, 7, 15, 25, or 45 min time points) or buffer (for 0 min time point) were added to initiate the reaction. Under standard conditions, reactions were initiated with the addition of NADPH. To delineate the contribution of esterases, some experiments were initiated by the addition of substrate in the presence or absence of NADPH. Plates were incubated at 37 °C under ambient oxygenation. At the respective times, each plate’s reaction was precipitated by the addition of 2 volumes of ice-cold acetonitrile containing an internal standard (carbamazepine, 50 nM). The plates were centrifuged at 4000 rcf (4 °C) for 5 min. The resulting supernatants were transferred and diluted 1:1 (supernatant:water) into new 96-well plates in preparation for LC/MS/MS analysis. Each compound was assayed in triplicate within the same 96-well plate. The in vitro half-life (t1/2, min, eq 1), intrinsic clearance (CLint, mL/min/kg, eq 2), and subsequent predicted hepatic clearance (CLhep, mL/min/kg, eq 3) were determined employing the following equations [drawing 1] 1 [drawing 2] 2 [drawing 3] 3 The estimated percent contribution to metabolism was calculated from the percent substrate lost plots generated from metabolic incubations initiated with the addition of a test compound. Calculations compared the area under the curve (AUC) from conditions in the presence and absence of NADPH and buffer-only (control) conditions (eqs 4 and 5). AUC was calculated by using the trapezoidal method [drawing 4] 4 [drawing 5] 5
The analysis of in vitro samples from microsomal stability or plasma protein binding experiments was determined by employing LCMS/MS with an electrospray ionization-enabled 5500 Sciex instrument (Sciex, Foster City, CA) that was coupled to Agilent HPLC pumps and an autosampler (Agilent Technologies, Santa Clara, CA). Analytes were separated by gradient elution using a Kinetex C18 column (2.1 mm × 50 mm, 5 μm; Phenomenex, Torrance, CA) warmed to 35 °C. Mobile phase A was 0.5% formic acid in water, and mobile phase B was 0.5% formic acid in acetonitrile. […] The total run time was 2.8 min, and the HPLC flow rate was 0.5 mL/min. Mass spectral analyses were performed using multiple reaction monitoring, with transitions and voltages specific for each analyte using a Turbo Ion Spray source (source temperature of 500 °C) in positive ionization mode (5.0 kV spray voltage). Multiple reaction monitoring transitions were the following: 6110B8 (m/z 345.02 → 149.03, DP = 31; EP = 10; CE = 37 and CXP = 14), 6G3R (m/z 421.06 → 225.12, DP = 91; EP = 10; CE = 39 and CXP = 12), 5D22 (m/z 309.068 → 211.16, DP = 131; EP = 10; CE = 29 and CXP = 12), and carbamazepine (m/z 237 → 194, DP = 96; EP = 10; CE = 25 and CXP = 8). Data were analyzed using OS Sciex Analyst 1.5.1 (SCIEX, Framingham, MA), Graphpad Prism 10.1.0 (GraphPad Software, Boston, Massachusetts), and Microsoft Excel version 2310 (Microsoft, Redmond, WA).

Structures are written as SMILES.

For the compound `Cc1nc(NC(=O)c2cc(-c3ccccc3)n(-c3ccccc3)n2)n[nH]1` [Compound 7], the “inhibition of PAR4 component of α-thrombin activation” value at PAR4 (10 μM compound, 5 nM α-thrombin + 1 μM vorapaxar) is “did inhibit”.

`Cn1nc(C(=O)Nc2n[nH]c(-c3c(F)cccc3F)n2)cc1C1CC1` [Compound 12]: in data set [1], the CLint scaled at 1 µM amounted to 11500 mL/min/kg and the “mouse CLhep” value is given as 89.3 mL/min/kg. Further, the IC50 on PAR4 was 0.149 µM.

In the case of `O=C(Nc1nc[nH]n1)c1nn(-c2ccccc2)c2c1CCC2` [Compound 17], in data set [1], the CLint scaled at 1 µM came out at 2440 mL/min/kg and the “mouse CLhep” value is reported as 86.8 mL/min/kg.

For the compound `O=C(Nc1n[nH]c(-c2ccc(F)cc2F)n1)c1nn(-c2ccccc2)c2c1CCCC2` [Compound 31], in data set [1], the CLint scaled at 1 µM was determined as 19900 mL/min/kg and the “mouse CLhep” value is reported as 89.6 mL/min/kg. Further, at PAR4, the IC50 turned out to be 0.163 µM.
